The values below come from patent publication US6878697B2, “Phenylamino-pyrimidines and uses thereof” (Ariad Pharmaceuticals, Inc., priority 2001, dated 2005).

This series in a line: Hydroxyapatite assay (hydroxyapatite adsorption chromatography). It counts as physicochemical. Conditions: corrected retention K=(retention time-void time)/void on TSK-Gel HA 1000 HPLC column; linear gradient 10 mM to 500 mM sodium phosphate, 0.15 N NaCl, pH 6.8. As for the experimental part: Hydroxyapatite is the principal mineral component of bone. Hydroxyapatite adsorption chromatography is used as an assay to evaluate the bone-targeting potential of both individual bone-targeting moieties (“monomers”) and of pharmaceuticals incorporating bone-targeting groups.
Method: The rentention time of a test compound is measured using a linear gradient from 10 mM sodium phosphate, 0.15 N NaCl, pH=6.8 to 500 mM sodium phosphate, 0.15 N NaCl, […] on a TSK-Gel HA 1000 high pressure liquid chromatography column (7.5 mm×75 mm). The rentention time of the compound is expressed in terms of K=(retention time-void time)/void. This K value is corrected using two reference compounds to correct from inter-column and inter-system variation to obtain a K′ value.
Reference Compounds: K′ values were determined for known bone targeted compounds, the bisphosphonate, alendronate and tetracycline.

The structures appear in SMILES notation.

For `NCCCC(O)(P(=O)(O)O)P(=O)(O)O` [Alendronate, alendronate], the “K′ value” worked out at 3.7.
